From patent publication US10077261B2, “Imidazolin-5-one derivative useful as FASN inhibitors for the treatment of cancer” (Janssen Pharmaceutica NV, priority 2012, dated 2018)

Target: T1, hFASN enzyme (full length) (Homo sapiens, UniProt P49327)
T1 construct: 10 μL hFASN enzyme (full length, 300 ng, purified in house); made in house
Assay: Fatty Acid Synthase (FASN) inhibition scintillation proximity assay
Type: biochemical
Details: for inhibition at 10 µM: read-out: Human FASN % inhibition @ 10 μM, 10 μM test compound; for IC50: read-out: Human FASN pIC50 (converted)
Experimental: In this assay, inhibition of FASN activity is measured using ^3H-acetyl-CoA and malonyl-CoA as substrates. ^3H-Acetyl CoA is converted to ^3H-palmitate through a series of reactions by the FASN protein, which contains 7 functional domains and carries out 7 enzymatic reactions to ultimately produce ^3H-palmitate. The assay principle is based upon the fact that ^3H-acetyl-CoA is hydrophilic and the end product, ^3H-palmitate is hydrophobic.
10 μL assay buffer (100 mM KH2PO4 pH 7.5, 1 mM DTT) (20 μL in blanks) was added to a 384-well white optiplate plate (Perkin Elmer). 0.9 μL test compound (at concentrations of 30 μM, 10 μM, 3 μM, 1 μM, 0.30 μM, 0.10 μM, 0.03 μM and 0.01 μM)/DMSO and 10 μL hFASN enzyme (full length, 300 ng, purified in house) or 10 μL assay buffer was added to the wells. […] The reaction was stopped by adding 20 μL Streptavidin coupled imaging beads (25 mg/ml). After incubation for 30 minutes at room temperature in the dark, the 384 well plate was centrifuged at 1500 rpm for 3 minutes and was measured after at least 24 hrs by the LEADseeker™, measuring emission using a 610±20 nm pass filter.
where mLC and mHC were the means of the low control wells and high control wells on the plate, after manual exclusion of outliers. A plot of Controlmin versus test compound concentration was fitted to a 4-parameter logistic curve using a non-linear least squares regression method.

T1 sequence (P49327 whole entry): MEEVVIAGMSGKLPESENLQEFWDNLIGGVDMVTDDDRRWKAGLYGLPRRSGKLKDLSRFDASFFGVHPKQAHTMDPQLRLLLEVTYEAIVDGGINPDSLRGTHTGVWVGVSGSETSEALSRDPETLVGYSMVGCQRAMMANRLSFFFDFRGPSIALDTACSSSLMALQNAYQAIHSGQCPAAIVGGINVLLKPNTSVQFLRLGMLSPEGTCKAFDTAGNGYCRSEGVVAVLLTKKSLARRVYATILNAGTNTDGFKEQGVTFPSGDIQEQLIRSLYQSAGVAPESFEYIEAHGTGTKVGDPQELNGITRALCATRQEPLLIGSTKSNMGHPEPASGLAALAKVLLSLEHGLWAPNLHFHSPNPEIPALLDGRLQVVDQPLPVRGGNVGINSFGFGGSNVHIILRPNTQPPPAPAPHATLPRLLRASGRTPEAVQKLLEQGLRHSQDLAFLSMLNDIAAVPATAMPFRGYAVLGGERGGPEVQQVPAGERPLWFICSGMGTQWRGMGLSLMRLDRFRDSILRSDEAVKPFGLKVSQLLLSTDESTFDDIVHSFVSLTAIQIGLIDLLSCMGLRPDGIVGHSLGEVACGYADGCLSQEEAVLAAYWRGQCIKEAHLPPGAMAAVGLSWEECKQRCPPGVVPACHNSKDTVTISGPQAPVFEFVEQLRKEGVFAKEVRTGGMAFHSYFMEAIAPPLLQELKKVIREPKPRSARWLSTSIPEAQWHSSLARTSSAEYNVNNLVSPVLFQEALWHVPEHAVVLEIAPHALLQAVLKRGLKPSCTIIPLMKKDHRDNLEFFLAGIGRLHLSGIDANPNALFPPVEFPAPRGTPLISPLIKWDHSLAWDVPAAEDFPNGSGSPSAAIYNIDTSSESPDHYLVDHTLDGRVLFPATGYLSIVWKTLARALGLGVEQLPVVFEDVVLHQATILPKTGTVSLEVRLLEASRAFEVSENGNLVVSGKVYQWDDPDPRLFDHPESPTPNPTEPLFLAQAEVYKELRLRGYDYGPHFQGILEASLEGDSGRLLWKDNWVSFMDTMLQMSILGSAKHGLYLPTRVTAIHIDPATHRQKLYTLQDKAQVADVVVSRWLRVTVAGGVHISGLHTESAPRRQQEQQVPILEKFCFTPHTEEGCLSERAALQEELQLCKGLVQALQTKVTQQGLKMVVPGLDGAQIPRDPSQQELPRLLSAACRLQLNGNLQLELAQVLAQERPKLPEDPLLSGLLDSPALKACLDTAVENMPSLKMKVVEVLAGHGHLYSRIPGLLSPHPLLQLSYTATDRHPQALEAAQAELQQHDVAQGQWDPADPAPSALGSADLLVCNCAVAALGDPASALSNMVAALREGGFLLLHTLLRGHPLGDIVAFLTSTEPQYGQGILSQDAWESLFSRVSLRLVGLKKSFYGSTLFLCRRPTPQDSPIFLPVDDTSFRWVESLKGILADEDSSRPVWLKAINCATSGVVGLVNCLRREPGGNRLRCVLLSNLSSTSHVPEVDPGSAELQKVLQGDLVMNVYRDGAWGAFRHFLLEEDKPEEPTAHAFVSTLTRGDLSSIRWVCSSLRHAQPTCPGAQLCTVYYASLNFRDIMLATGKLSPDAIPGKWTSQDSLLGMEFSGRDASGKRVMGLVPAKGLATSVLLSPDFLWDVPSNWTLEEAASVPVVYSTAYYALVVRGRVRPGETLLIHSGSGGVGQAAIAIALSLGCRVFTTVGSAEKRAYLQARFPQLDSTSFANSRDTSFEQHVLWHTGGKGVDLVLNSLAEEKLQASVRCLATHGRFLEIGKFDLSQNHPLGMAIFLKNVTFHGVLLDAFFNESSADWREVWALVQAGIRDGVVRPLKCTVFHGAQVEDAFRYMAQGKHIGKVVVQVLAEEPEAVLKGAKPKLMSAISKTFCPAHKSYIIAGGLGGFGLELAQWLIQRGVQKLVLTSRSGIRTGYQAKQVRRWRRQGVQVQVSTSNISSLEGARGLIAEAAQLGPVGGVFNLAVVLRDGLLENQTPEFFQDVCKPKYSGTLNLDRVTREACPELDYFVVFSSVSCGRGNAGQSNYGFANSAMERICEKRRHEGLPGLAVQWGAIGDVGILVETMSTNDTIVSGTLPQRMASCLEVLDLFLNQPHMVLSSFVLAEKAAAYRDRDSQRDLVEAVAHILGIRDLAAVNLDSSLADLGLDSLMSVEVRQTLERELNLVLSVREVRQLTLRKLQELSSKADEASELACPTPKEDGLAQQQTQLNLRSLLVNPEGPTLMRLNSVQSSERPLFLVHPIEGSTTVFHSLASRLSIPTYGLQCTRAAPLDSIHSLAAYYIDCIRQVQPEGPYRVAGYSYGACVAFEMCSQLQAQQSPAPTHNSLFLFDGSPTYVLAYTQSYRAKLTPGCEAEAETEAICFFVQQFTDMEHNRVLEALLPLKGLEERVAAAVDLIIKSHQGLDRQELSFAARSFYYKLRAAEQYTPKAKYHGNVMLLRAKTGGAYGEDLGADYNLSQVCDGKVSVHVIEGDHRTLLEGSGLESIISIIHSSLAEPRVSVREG

Compound	inhibition at 10 µM [%]	IC50 [µM]
Cn1nccc1-c1ccc(C2=NC3(CC3)C(=O)N2CC2CCN(C(=O)C3CC3)CC2)cc1 [compound 8, 6-{[1-(Cyclopropylcarbonyl)piperidin-4-yl]methyl}-5-[4-(1-methyl-1H-pyrazol-5-yl)phenyl]-4,6-diazaspiro[2.4]hept-4-en-7-one]	5.1	> 10
Cn1cc(-c2ccc(C3=NC4(CC4)C(=O)N3CC3CCN(C(=O)C4CC4)CC3)cc2)cn1 [compound 9, 6-{[1-(Cyclopropylcarbonyl)piperidin-4-yl]methyl}-5-[4-(1-methyl-1H-pyrazol-4-yl)phenyl]-4,6-diazaspiro[2.4]hept-4-en-7-one]	11.4	> 10
COC(=O)N1CCC2(CC1)N=C(c1ccc(-c3ccc4occc4c3)cc1)N(CC1CN(C(=O)C3CC3)C1)C2=O [compound 16, Methyl 2-[4-(1-benzofuran-5-yl)phenyl]-3-{[1-(cyclopropylcarbonyl)azetidin-3-yl]methyl}-4-oxo-1,3,8-triazaspiro[4.5]dec-1-ene-8-carboxylate]	72.5	1.38
Cn1ncc2ccc(-c3ccc(C4=NC5(CC5)C(=O)N4CC4CCN(C(=O)C5CC5)CC4)cc3)cc21 [compound 24, 6-{[1-(Cyclopropylcarbonyl)piperidin-4-yl]methyl}-5-[4-(1-methyl-1H-indazol-6-yl)phenyl]-4,6-diazaspiro[2.4]hept-4-en-7-one]	76.4	1.86
O=C(C1CC1)N1CCC(CN2C(=O)C3(CC3)N=C2c2ccc(-c3ccc4ccncc4c3)cc2)CC1 [compound 25, 6-{[1-(Cyclopropylcarbonyl)piperidin-4-yl]methyl}-5-(4-isoquinolin-7-ylphenyl)-4,6-diazaspiro[2.4]hept-4-en-7-one]	64.4	~4.9
O=C(C1CC1)N1CCC(CN2C(=O)C3(CC3)N=C2c2ccc(-c3ccncc3)cc2)CC1 [compound 32, 6-{[1-(Cyclopropylcarbonyl)piperidin-4-yl]methyl}-5-(4-pyridin-4-ylphenyl)-4,6-diazaspiro[2.4]hept-4-en-7-one]	6.8	> 10
O=C(C1CC1)N1CCC(CN2C(=O)C3(CC3)N=C2c2ccc(-c3ccc4ocnc4c3)cc2)CC1 [compound 37, 5-[4-(1,3-Benzoxazol-5-yl)phenyl]-6-{[1-(cyclopropylcarbonyl)piperidin-4-yl]methyl}-4,6-diazaspiro[2.4]hept-4-en-7-one]	28.6	> 10
Cn1cc(-c2ccc(C3=NC4(CC4)C(=O)N3CC3CN(C(=O)C4CC4)C3)cc2)cn1 [compound 42, 6-{[1-(Cyclopropylcarbonyl)azetidin-3-yl]methyl}-5-[4-(1-methyl-1H-pyrazol-4-yl)phenyl]-4,6-diazaspiro[2.4]hept-4-en-7-one]	23.5	> 10
Cn1nccc1-c1ccc(C2=NC3(CC3)C(=O)N2CC2CN(C(=O)C3CC3)C2)cc1 [compound 43, 6-{[1-(Cyclopropylcarbonyl)azetidin-3-yl]methyl}-5-[4-(1-methyl-1H-pyrazol-5-yl)phenyl]-4,6-diazaspiro[2.4]hept-4-en-7-one]	45.4	~10
O=C(C1CC1)N1CC(CN2C(=O)C3(CC3)N=C2c2ccc(-c3ccc(O)cc3)cc2)C1 [compound 50, 6-{[1-(Cyclopropylcarbonyl)azetidin-3-yl]methyl}-5-(4′-hydroxybiphenyl-4-yl)-4,6-diazaspiro[2.4]hept-4-en-7-one]	64.8	3.47
Nc1cc(-c2ccc(C3=NC4(CC4)C(=O)N3CC3CN(C(=O)C4CC4)C3)cc2)ccc1O [compound 53, 5-(3′-Amino-4′-hydroxybiphenyl-4-yl)-6-{[1-(cyclopropylcarbonyl)azetidin-3-yl]methyl}-4,6-diazaspiro[2.4]hept-4-en-7-one]	78.6	1.95
O=CNc1cc(-c2ccc(C3=NC4(CC4)C(=O)N3CC3CN(C(=O)C4CC4)C3)cc2)ccc1O [compound 54, N-[4′-(6-{[-(Cyclopropylcarbonyl)azetidin-3-yl]methyl}-7-oxo-4,6-diazaspiro[2.4]hept-4-en-5-yl)-4-hydroxybiphenyl-3-yl]formamide]	64.7	4.68
O=C(C1CC1)N1CCC(CN2C(=O)C3(CC3)N=C2c2ccc(-c3ccc(-c4ccncc4)cc3)cc2)CC1 [compound 61, 6-{[1-(Cyclopropylcarbonyl)piperidin-4-yl]methyl}-5-(4′-pyridin-4-ylbiphenyl-4-yl)-4,6-diazaspiro[2.4]hept-4-en-7-one]	63.2	3.98
Cn1nccc1-c1ccc(-c2ccc(C3=NC4(CC4)C(=O)N3CC3CCN(C(=O)C4CC4)CC3)cc2)cc1 [compound 62, 6-{[1-(Cyclopropylcarbonyl)piperidin-4-yl]methyl}-5-[4′-(1-methyl-1H-pyrazol-5-yl)biphenyl-4-yl]-4,6-diazaspiro[2.4]hept-4-en-7-one]	29.3	> 10

Second part, the molecule after the results:

inhibition at 10 µM [%]	IC50 [µM]	Compound
44.3	> 10	O=C(C1CC1)N1CC[C@@H](CN2C(=O)C3(CCCC3)N=C2c2ccc(-c3ccncc3)cc2)C1 [compound 3, 3-{[(3R)-1-(Cyclopropylcarbonyl)pyrrolidin-3-yl]methyl}-2-(4-pyridin-4-ylphenyl)-1,3-diazaspiro[4.4]non-1-en-4-one]
74.6	2.14	O=C(C1CC1)N1CC[C@@H](CN2C(=O)C3(CCCC3)N=C2c2ccc(-c3cccnc3)cc2)C1 [compound 5, 3-{[(3R)-1-(Cyclopropylcarbonyl)pyrrolidin-3-yl]methyl}-2-(4-pyridin-3-ylphenyl)-1,3-diazaspiro[4.4]non-1-en-4-one]
61.6	7.24	O=C(C1CC1)N1CCC(CN2C(=O)C3(CC3)N=C2c2ccc(-c3cccnc3)cc2)CC1 [compound 6, 6-{[1-(Cyclopropylcarbonyl)piperidin-4-yl]methyl}-5-(4-pyridin-3-ylphenyl)-4,6-diazaspiro[2.4]hept-4-en-7-one]
33.7	–	N#Cc1ccc(-c2ccc(C3=NC4(CC4)C(=O)N3CC3CCN(C(=O)C4CC4)CC3)cc2)cc1 [compound 7, 4′-(6-{[1-(Cyclopropylcarbonyl)piperidin-4-yl]methyl}-7-oxo-4,6-diazaspiro[2.4]hept-4-en-5-yl)biphenyl-4-carbonitrile]
29.7	> 10	Cn1cc(-c2ccc(C3=NC4(CCCC4)C(=O)N3C[C@@H]3CCN(C(=O)C4CC4)C3)cc2)cn1 [compound 13, 3-{[(3R)-1-(Cyclopropylcarbonyl)pyrrolidin-3-yl]methyl}-2-[4-(1-methyl-1H-pyrazol-4-yl)phenyl]-1,3-diazaspiro[4.4]non-1-en-4-one]
42.7	> 10	O=C(C1CC1)N1CC[C@@H](CN2C(=O)C3(CCCC3)N=C2c2ccc(-c3ccccn3)cc2)C1 [compound 18, 3-{[(3R)-1-(Cyclopropylcarbonyl)pyrrolidin-3-yl]methyl}-2-(4-pyridin-2-ylphenyl)-1,3-diazaspiro[4.4]non-1-en-4-one]
85	1.07	O=C(C1CC1)N1CC[C@@H](CN2C(=O)C3(CCCC3)N=C2c2ccc(-c3ccnc4ccccc34)cc2)C1 [compound 22, 3-{[(3R)-1-(Cyclopropylcarbonyl)pyrrolidin-0 3-yl]methyl}-2-(4-quyinolin-4-ylphenyl)-1,3-diazaspiro[4.4]non-1-en-4-one]
-0.97	> 10	CN1CCN(c2ccc(-c3ccc(C4=NC5(CCCC5)C(=O)N4C[C@@H]4CCN(C(=O)C5CC5)C4)cc3)cn2)CC1 [compound 44, 3-{[(3R)-1-(Cyclopropylcarbonyl)pyrrolidin-3-yl]methyl}-2-{4-[6-(4-methylpiperazin-1-yl)pyridin-3-yl]phenyl}-1,3-diazaspiro[4.4]non-1-en-4-one]
32.7	> 10	O=C(C1CC1)N1CCC(CN2C(=O)C3(CC3)N=C2c2ccc(-c3ccc(O)cc3)cc2)CC1 [compound 55, 6-{[1-(Cyclopropylcarbonyl)piperidin-4-yl]methyl}-5-(4′-hydroxybiphenyl-4-yl)-4,6-diazaspiro[2.4]hept-4-en-7-one]
65.6	4.79	N#Cc1cccc(-c2ccc(C3=NC4(CCCC4)C(=O)N3C[C@@H]3CCN(C(=O)C4CC4)C3)cc2)c1 [compound 83, 4′-(3-{[(3R)-1-(Cyclopropylcarbonyl)pyrrolidin-3-yl]methyl}-4-oxo-1,3-diazaspiro[4.4]non-1-en-2-yl)biphenyl-3-carbonitrile]
89.2	1	CS(=O)(=O)Nc1cccc(-c2ccc(C3=NC4(CCCC4)C(=O)N3C[C@@H]3CCN(C(=O)C4CC4)C3)cc2)c1 [compound 84, N-[4′-(3-{(3R)-1-(Cyclopropylcarbonyl)pyrrolidin-3-yl]methyl}-4-oxo-1,3-diazaspiro[4.4non-1-en-2-yl)biphenyl-3-yl]methanesulfonamide]
